Results reported in article PMC3199943, “Screening the MayBridge Rule of 3 Fragment Library for Compounds That Interact with the Trypanosoma brucei myo-Inositol-3-Phosphate Synthase and/or Show Trypanocidal Activity” (Molecular Biology International, 2011).
Where two headings read alike, the source gives them in different places.

Assays:
HeLa cells = test: cells; conditions: for viability at 500 µM / CC50: Homo sapiens, HeLa; for viability at 500 µM: 65 h; for HeLa Cells Alamar Blue: Supplementary Table 1; for CC50: read-out: HeLa ED50
Description: (§1) Cytotoxic effects against HeLa and A549 cells were determined in a similar manner. Briefly, the cells were cultured in DMEM supplemented with 10% FCS and 2 mM L-Glutamine. Cells were plated at initial cell concentration of 2 × 10^4 cells/well and incubated with the compounds for ~65 hours prior to addition of Alamar Blue solution for a further 5 hours.

A549 cells = test: Cytotoxicity against A549 cells, Alamar Blue; type: cell-based; conditions: Supplementary Table 1, compound 0.5 mM, percentage of controls (n=1); for viability at 500 µM: Homo sapiens, A549, 65 h
Description: as §1

[1] = read-out: HeLa Cells Alamar Blue
[2] = compound 0.5 mM, percentage of controls, mean ± SD (n=3) or SE (n=2)

SMILES | viability at 500 µM (HeLa cells; [1]) [%] | viability at 500 µM (A549 cells) [%] | further results
COC(=O)c1ccccc1C#N [compound 274, methyl 2‐cyanobenzoate] | 91 ± 19.6 | 64 | 
O=C(O)CC12CC3CC(CC(C3)C1)C2 [compound 588, 2‐(1‐adamantyl)acetic acid] | 95.4 ± 14.1 | 85.4 | 
O=C1CSC(c2cccs2)C1 (stereo not drawn) [compound 482, 5‐(2‐thienyl)tetrahydrothiophen‐3‐one] | 116 ± 6.7 | 112 | 
OCc1ccc(Cn2ccnc2)cc1 [compound 528, [4‐(1H‐imidazol‐1‐ylmethyl)phenyl]methanol] |  |  | HeLa Cells Alamar Blue (HeLa cells; [2]): 90.8 ± 4.5 percentage of controls; A549 Cells Alamar Blue (A549 cells): 81.2 percentage of controls
CNCc1ccnc(N2CCCCC2)c1 [compound 671, N‐methyl‐N‐[(2‐piperidin‐1‐ylpyridin‐4‐yl)methyl]amine] |  |  | HeLa Cells Alamar Blue (HeLa cells; [2]): 54.8 ± 9.2 percentage of controls; A549 Cells Alamar Blue (A549 cells): 82.7 percentage of controls
CN(C)CCOc1ccc(C#N)cc1 [compound 542, 4‐[2‐(dimethylamino)ethoxy]benzonitrile] | 91.6 ± 9.5 | 69.7 | 
Nc1cccc(-c2cccnc2)c1 [compound 346, 3‐pyridin‐3‐ylaniline] | 73.9 ± 6.1 | 98.5 | 
CNCc1cccc(N2CCCCC2)c1 [compound 656, N‐methyl‐N‐(3‐piperidin‐1‐ylbenzyl)amine] | 27.4 ± 13.3 | 104 | 
O=C1CCC2CC1CCC2=O [compound 206, bicyclo[3.3.1]nonane‐2,6‐dione] | 80.8 ± 7.6 | 42.1 | 
COC(=O)c1ccc2ncccc2c1 [compound 515, methyl quinoline‐6‐carboxylate] | 69.9 ± 8.1 | 67.8 | 
Cc1nc2ccc(N)cc2s1 [compound 302, 2‐methyl‐1,3‐benzothiazol‐6‐ylamine] | 71.9 ± 12.4 | 62.3 | 
Cc1cc(C)on1 [compound 4, 3,5‐dimethylisoxazole] | 108 ± 5.3 | 123 | 
Nc1ccncc1 [compound 2, pyridin‐4‐amine] | 103 ± 2.2 | 106 | 
CCCCc1nc(CO)c[nH]1 [compound 223, (2‐butyl‐1H‐imidazol‐4‐yl)methanol] | 105 ± 13.7 | 139 | 
OCc1ccc2c(c1)OCO2 [compound 200, 1,3‐benzodioxol‐5‐ylmethanol] | 85.2 ± 9.3 | 92.1 | 
Fc1ccc(N2CCNCC2)cc1 [compound 457, 1‐(4‐fluorophenyl)piperazine] | 12.7 ± 10.1 | 74.7 | 
CN(C(N)=S)c1ccccc1 [compound 325, N‐methyl‐N‐phenylthiourea] | 33.9 ± 11.6 | 82.7 | CC50 (HeLa cells): 415 ± 24 µM
OCc1ccc(-c2ccccc2)nc1 [compound 492, (6‐phenyl‐3‐pyridinyl)methanol] | 78.6 ± 15.6 | 81.3 | 
NC1CCN(Cc2ccccc2)CC1 [compound 548, 1‐benzylpiperidin‐4‐amine] | 39.5 ± 10 | 89.3 | 
CNCc1ccc(OC)cc1 [compound 199, N‐(4‐methoxybenzyl)‐N‐methylamine] | 95.1 ± 15.3 | 71 | 
O=C(O)Cc1ccc(Cl)c(Cl)c1 [compound 659, 2‐(3,4‐dichlorophenyl)acetic acid] | 74 ± 17.1 | 106 | 
N#Cc1cccc(-c2ccco2)c1 [compound 338, 3‐(2‐furyl)benzonitrile] | 18.5 ± 15.2 | 57.8 | 

SMILES | viability at 500 µM (HeLa cells; [1]) [%] | viability at 500 µM (A549 cells) [%] | further results
NCc1cccc(F)c1 [compound 70, 3‐fluorobenzylamine] | 104 ± 17.4 | 104 | 
O=C1N[C@@H](Cc2ccccc2)CO1 [compound 421, (S)‐4‐BENZYL‐2‐OXAZOLIDINONE] | 86 ± 5.1 | 80.2 | 
Nc1ccc(N2CCOCC2)cc1 [compound 435, 4‐morpholinoaniline] | 10.2 ± 6.9 | 33.5 | 
Cc1cccc(N)c1N [compound 55, 3‐methylbenzene‐1,2‐diamine] | 11.2 ± 7.2 | 26.5 | 
OCC1Cc2ccccc2O1 (stereo not drawn) [compound 187, 2,3‐dihydro‐1‐benzofuran‐2‐ylmethanol] | 94.3 ± 13.3 | 50.5 | 
Cc1onc(-c2ccccc2)c1N [compound 384, 5‐methyl‐3‐phenyl‐4‐isoxazolamine] | 80.8 ± 13.4 | 75.5 | 
Cc1oc(-c2ccccc2)nc1CCO [compound 643, 2‐(5‐methyl‐2‐phenyl‐1,3‐oxazol‐4‐yl)ethan‐1‐ol] |  |  | HeLa Cells Alamar Blue (HeLa cells; [2]): 45.5 ± 7.7 percentage of controls; A549 Cells Alamar Blue (A549 cells): 104.4 percentage of controls
FC(F)(F)c1nc2ccccc2[nH]1 [compound 499, 2‐(trifluoromethyl)‐1H‐benzo[d]imidazole] | 82 ± 14.1 | 116 | 
Cc1cc(N)c(N)cc1Cl [compound 240, 4-chloro-5-methylbenzene-1,2-diamine] | 12.1 ± 8.7 | 14.7 | CC50 (HeLa cells): 454 ± 55 µM
CCOC(=O)C1CCNCC1 [compound 245, ethyl piperidine‐4‐carboxylate] | 97.8 ± 3.2 | 99 | 
O=C(O)c1ccc(-n2cccc2)cc1 [compound 512, 4‐(1H‐pyrrol‐1‐yl)benzoic acid] | 97.5 ± 13.1 | 63.2 | 
O=C1CCOc2ccc(F)cc21 [compound 318, 6‐fluorochroman‐4‐one] | 104 ± 16.4 | 99 | 
O=C(O)c1csc2ccccc12 [compound 432, 1‐benzothiophene‐3‐carboxylic acid] | 88.5 ± 12.2 | 55.1 | 
OCc1cccc(Cn2ccnc2)c1 [compound 527, [3‐(1H‐imidazol‐1‐ylmethyl)phenyl]methanol] |  |  | HeLa Cells Alamar Blue (HeLa cells; [2]): 80.7 ± 17.6 percentage of controls; A549 Cells Alamar Blue (A549 cells): 69.2 percentage of controls
COC(=O)C1Cc2ccccc2N1 (stereo not drawn) [compound 422, methyl 2‐indolinecarboxylate] | 11.1 ± 5.7 | 40.1 | 
CNCc1ccc(N2CCCCC2)cc1 [compound 657, N‐methyl‐N‐(4‐piperidin‐1‐ylbenzyl)amine] | 40.9 ± 12 | 77.4 | 
Oc1ncnc2cccc(F)c12 [compound 296, 5‐fluoroquinazolin‐4‐ol] |  | 63.7 | viability at 500 µM (HeLa cells; read-out: HeLa Cells Alamar Blue, Supplementary Table 1, compound 0.5 mM, percentage of controls, mean ± SD (n=3) or SE (n=2)): 92.7 ± 1.9%
OCc1nccn1Cc1ccccc1 [compound 526, (1‐benzyl‐1H‐imidazol‐2‐yl)methanol] | 81 ± 13.3 | 58 | 
Cc1onc(-c2ccccc2)c1CO [compound 534, (5‐methyl‐3‐phenyl‐4‐isoxazolyl)methanol] | 78.8 ± 15.6 | 62.9 | 
NC(=O)Cc1ccc(O)cc1 [compound 192, 2‐(4‐hydroxyphenyl)acetamide] | 96.9 ± 9.5 | 44.6 | 
OCc1cccc(-c2ccncc2)c1 [compound 491, (3‐pyrid‐4‐ylphenyl)methanol] | 34.4 ± 13.8 | 66.8 | 
O=C(O)c1cccs1 [compound 85, thiophene‐2‐carboxylic acid] | 100 ± 7.4 | 119 | 
